From US6127409A, “Ascorbic acid derivative and vitamin C preparation containing the same” (priority 1997, dated 2000)
Counter-ions that a name gives are not always drawn. Like-named read-outs stand apart in the source and are kept apart here.

How the values were obtained:
[1] = Stability: residual ratio (concentration after storage/initial concentration) by HPLC after standing at room temperature for 10 days; format: physicochemical; conditions: water
Experimental: Then, their residual ratios (concentration after storage/initial concentration) were determined by HPLC through a column Shodex Asahipak NH2P-50 4E (trade name, manufactured by Showa Denko KK) to evaluate stability.

[2] = system: normal human adult mamma epidermal Keratinocyte; format: cell-based; conditions: 20 hours culture
Experimental: About 6×10^5 cells of a normal human adult mamma epidermal Keratinocyte (available from Kurashiki Boseki KK) were sowed on a 60 mm plate and cultured in a serum-free culturing medium (manufactured by Kurashiki Boseki KK) for 2 hours, and after displacing with the same culturing medium having added thereto from 2 to 50 μM of an ascorbic acid or a derivative thereof, further cultured for 20 hours. The cells were collected by trypsin treatment, and the number of cells was counted by a Coulter Counter Model DN (trade name, manufactured by Coulter Electronics). The cells thus collected were washed with Hank's equilibrium salt solution, pulverized in an ultrasonic homogenizer, filtered through a Mol-cut II (UFPlLCC) (trade name, produced by Nippon Milipore KK) and analyzed by HPLC through a column Shodex Asahipak NH2P-50 4E (trade name, produced by Showa Denko KK). The amount of ascorbic acid and derivatives thereof was measured to determine the intracellular cumulative amount. As a control, culturing was performed in the same manner as above except for not adding ascorbic acid or a derivative thereof, and the ascorbic acid was quantitatively determined. The difference in the intracellular ascorbic acid cumulative amount between the case where ascorbic acid or a derivative thereof was added and the case where ascorbic acid or a derivative thereof was not added is shown in Table 2. […]

| SMILES | remaining at 240 h, 2000 µM ([1]; 2 mM aqueous solution, room temperature, 10 days, HPLC, read-out: Stability (residual ratio: concentration after storage/initial concentration)) [%] | Intracellular Cumulative Amount (difference from not added) ([2]; addition amount 2 μM) [Pmole/cell] | Intracellular Cumulative Amount (difference from not added) ([2]; addition amount 50 μM) [Pmole/cell] | remaining at 240 h, 2000 µM [1] [%] |
| --- | --- | --- | --- | --- |
| O=C1O[C@H]([C@@H](O)CO)C(O)=C1OP(=O)([O-])[O-].[Mg+2] [L-Ascorbic acid-2-phosphate magnesium salt] | 97 | < 0.0002 | 0.0022 | – |
| CCCCCCCCCCCCCCCC(=O)OC[C@H](O)[C@H]1OC(=O)C(OP(=O)(O)O)=C1O [L-Ascorbic acid-2-phosphate-6-palmitate magnesium salt] | – | – | – | 98 |
